Source: patent US4146717A, “Nitroquinazolinone compounds having antiviral properties” (priority 1974, dated 1979)
Values after ≈ are worked out from the molar mass of the structure shown. Read-outs that look alike come from different tables or passages of the source.

Assays:
[1] = cited from earlier work; for undesirable side effects: clinical
[2] = system: DNA type viruses such as herpes simplex and vaccinia; conditions: clinical use; cited from earlier work
[3] = system: vaccinia virus IHD strain; experiment: microbe, parasite or virus in culture; type: cell-based; conditions: for MIC: Orthopoxvirus vaccinia, in Gallus gallus, 72 h, read-out: minimum inhibitory concentration (MIC); for Chemotherapeutic index (MTC/MIC): chick embryo fibroblast cells, 4320 min
[4] = system: vaccinia virus IHD strain; type: in vivo, mice (ICR strain); conditions: -2 to 100 hours after virus challenge, 12 days observation; for Survival rate, PO: 100 mg/kg orally; for Survival rate, SC: 100 mg/kg subcutaneously
[5] = Acute toxicity in mice, intraperitoneal; type: in vivo, mice (ddN strain); conditions: for No. of survivors/No. of tested: 7 days observation
Excerpt: The compounds of the present invention are not only very effective but also show no side effects. For example, acute toxicity of the present compound by the intraperitoneal injection in mice is remarkably lower than Methisazone as shown in Table III.
animals: male mice weighing 17 to 20 g of ddN strain
administration: intraperitoneally, suspension in 0.5% carboxymethyl
observation period: 7 days after an administration

[6] = Toxic effects in chick embryo fibroblast cell culture (minimum toxic concentration); conditions: chicken, chick embryo fibroblast cells
[7] = system: parainfluenza virus type 1, Sendai virus; experiment: Effects on parainfluenza virus multiplication in chick embryo fibroblast cell culture (haemagglutinating titration); type: cell-based; conditions: 2 days at 37° C, non-medicated control 32
Method: Effects on parainfluenza virus multiplication in chick embryo fibroblast cell culture.
A general procedure of haemagglutinating titration was employed. Monolayers of chick embryo fibroblast cells were prepared by the same procedure as described in Example 12. Parainfluenza virus type 1, haemagglutinating virus of Japan (HVJ), so called Sendai virus was challenged on 3rd day monolayer cell sheet. […] After 2 days' incubation at 37° C., the cells were harvested, disrupted by freezing and thawing and centrifuged. The haemagglutinating titre of the supernatant was assayed using 1% guinea pig red blood cell as usual.
cells: chick embryo fibroblast cell
virus: parainfluenza virus type 1, Sendai virus

[8] = system: adeno virus type 8 Kanehisa strain; conditions: concentration 40; 5th day after infection; non-medicated control 512
[9] = system: Influenza virus NWS strain; type: in vivo, mice (ICR strain); conditions: 14 days observation, control 1/8
[10] = system: herpes simplex virus HF strain; experiment: Effects on herpes simplex virus multiplication in chick embryo fibroblast cell culture (plaque reduction); type: cell-based; conditions: 5 μg/ml, 4 days at 37° C; for Average number of plaques: non-medicated control 45; for inhibition at 5 µg/mL: Fibroblast, 96 h, read-out: Percentage inhibition of occurrences of plaques
Method: Effects on herpes simplex virus multiplication in chick embryo fibroblast cell culture.
A general procedure of plaque-reduction method was employed. Monolayers of chick embryo fibroblast cells were prepared by a general procedure, i.e., trypsinization of 10 day old chick embryo and then 2 days' incubation in Eagle's minimum essential medium (Eagle's MEM) containing a 5% calf serum at 37° C. in a plaque tube. Then, growth medium was discarded and about 100 plaque forming units (PFU) of herpes simplex virus HF strain per plaque tube were challenged. […] After 4 day's incubation at 37° C., the number of plaques was counted and compared with the controlled plaque tube without test compounds.
cells: chick embryo fibroblast cells
virus: herpes simplex virus HF strains
observation: by counting the number of plaques after 4 days' incubation

Structure (SMILES) | MIC [3] [µg/mL] | Chemotherapeutic index (MTC/MIC) ([3]; vaccinia virus) | MCC at 72 h [6] [µg/mL] | other results
NC12CC3CC(CC(C3)C1)C2 [Amantadine] |  |  |  | undesirable side effects [1]: severe side effect on central nervous system
O=c1[nH]c(=O)n([C@H]2C[C@H](O)[C@@H](CO)O2)cc1I [Idoxuridine] |  |  |  | antiviral spectrum [2]: only effective against DNA type viruses such as herpes simplex and vaccinia; toxicity limiting use ([1]; clinical use): it can only be used by topical application because of its toxicity
CN1C(=O)C(=NNC(N)=S)c2ccccc21 [Methisazone, 1-methylindole-2,3-dione 3-thiosemicarbazone, reference compound] | 5 (≈ 21.3 µM) | 4 | 20 | undesirable side effects [1]: severe vomiting, dermatitis and jaundice; minimum inhibitory concentration (MIC) ([3]; vaccinia virus IHD strain, 1.1 × 10^4 PFU/tube, CPE after 3 days' incubation at 37° C): 5 µg/mL (≈ 21.3 µM); Survival rate, PO [4]: 100%; Survival rate, SC [4]: 100%; No. of survivors/No. of tested ([5]; 1000 mg/kg intraperitoneally): 3/5; No. of survivors/No. of tested ([5]; 2000 mg/kg intraperitoneally): 0/5; gastro-duodenal hemorrhage and intestinal ulceration ([5]; mice of the acute toxicity test): Severe gastro-duodenal hemorrhage and intestinal ulceration were observed in dead mice
O=c1nc(-c2ccccc2)c2cc([N+](=O)[O-])ccc2n1CC1CCCCCC1 [compound 1] | 0.1 (≈ 0.265 µM) | 1000 | 100 | 
O=c1nc(-c2ccccc2)c2cc([N+](=O)[O-])ccc2n1C1CCCCC1 [compound 2] | 0.1 (≈ 0.286 µM) | 1000 | 100 | Haemagglutinating titre ([7]; 12.5 μg/ml): 4; Haemagglutinating titre ([7]; 25 μg/ml): 2
O=c1nc(-c2ccccc2)c2cc([N+](=O)[O-])ccc2n1CC1CCCCC1 [compound 3] | 0.1 (≈ 0.275 µM) | 1000 | 100 | Haemagglutinating titre [8]: 32; Survival rate, PO [4]: 100%; Survival rate, SC [4]: 100%
O=c1nc(-c2ccccc2)c2cc([N+](=O)[O-])ccc2n1CC1CCCCCCC1 [compound 4] | 0.1 (≈ 0.255 µM) | 1000 | 100 | 
O=c1nc(-c2ccccc2)c2cc([N+](=O)[O-])ccc2n1CC1CCCCO1 (centres unmarked) [compound 5] | 0.2 (≈ 0.547 µM) |  | > 100 | Haemagglutinating titre [8]: 64; Haemagglutinating titre ([7]; 12.5 μg/ml): 4; Haemagglutinating titre ([7]; 25 μg/ml): < 2; Chemotherapeutic index (MTC/MIC) [3]: > 500; Survival rate ([9]; 10 mg/kg subcutaneously): 4/8; Survival rate ([9]; 50 mg/kg subcutaneously): 6/8; Survival rate, SC [4]: 100%; No. of survivors/No. of tested ([5]; 1000 mg/kg intraperitoneally): 5/5; No. of survivors/No. of tested ([5]; 2000 mg/kg intraperitoneally): 4/5; Average number of plaques [10]: 9; inhibition at 5 µg/mL [10]: 80%
O=c1nc(-c2ccccc2)c2cc([N+](=O)[O-])ccc2n1Cc1ccccn1 [compound 6] | 0.2 (≈ 0.558 µM) | 250 | 50 | 
O=c1nc(-c2ccccc2)c2cc([N+](=O)[O-])ccc2n1CC1CCCC1 [compound 7] | 0.2 (≈ 0.572 µM) | > 500 | > 100 | 
O=c1nc(-c2ccccc2)c2cc([N+](=O)[O-])ccc2n1Cc1ccccc1Cl [compound 8] | 0.25 (≈ 0.638 µM) | 20 | 5 | 
Cc1ccccc1Cn1c(=O)nc(-c2ccccc2)c2cc([N+](=O)[O-])ccc21 [compound 9] | 0.25 (≈ 0.673 µM) | 20 | 5 | Average number of plaques [10]: 2; inhibition at 5 µg/mL [10]: 96%
O=c1nc(-c2cccs2)c2cc([N+](=O)[O-])ccc2n1CC1CCCCO1 (centres unmarked) [compound 10] | 0.4 (≈ 1.08 µM) | > 250 | > 100 | 
O=c1nc(-c2ccccc2)c2cc([N+](=O)[O-])ccc2n1Cc1ccccc1 [compound 11] | 0.6 (≈ 1.68 µM) | 40 | 25 | Survival rate, SC [4]: 100%
O=c1nc(-c2ccccc2)c2cc([N+](=O)[O-])ccc2n1Cc1cccs1 [compound 12] | 0.6 (≈ 1.65 µM) | 80 | 50 | 
O=c1nc(-c2ccccc2)c2cc([N+](=O)[O-])ccc2n1Cc1ccco1 [compound 13] | 1 (≈ 2.88 µM) | 100 | 100 | 
O=c1nc(-c2ccccc2)c2cc([N+](=O)[O-])ccc2n1CC1CCCO1 (centres unmarked) [compound 14] | 1.25 (≈ 3.56 µM) | > 80 | > 100 | Haemagglutinating titre [8]: 32; Survival rate, SC [4]: 100%; No. of survivors/No. of tested ([5]; 1000 mg/kg intraperitoneally): 5/5; No. of survivors/No. of tested ([5]; 2000 mg/kg intraperitoneally): 4/5
O=c1nc(-c2ccccc2)c2cc([N+](=O)[O-])ccc2n1CCC1CCCCC1 [compound 15] | 5 (≈ 13.2 µM) | > 20 | > 100 | 
CCN(CC)C(=O)Cn1c(=O)nc(-c2ccccc2)c2cc([N+](=O)[O-])ccc21 [compound 17] | 5 (≈ 13.1 µM) | > 20 | > 100 | 
O=c1nc(-c2ccccc2)c2cc([N+](=O)[O-])ccc2n1CC1CC1 [compound 18] | 5 (≈ 15.6 µM) | > 20 | > 100 | 
CCOCCn1c(=O)nc(-c2ccccc2)c2cc([N+](=O)[O-])ccc21 [compound 19] | 5 (≈ 14.7 µM) | > 20 | > 100 | 
O=c1nc(-c2ccccc2Cl)c2cc([N+](=O)[O-])ccc2n1CC1CC1 [compound 20] | 5 (≈ 14.1 µM) | 10 | 50 | 
O=c1nc(C2CCCCC2)c2cc([N+](=O)[O-])ccc2n1CC1CC1 [compound 21] | 5 (≈ 15.3 µM) | 10 | 50 | 
CSCn1c(=O)nc(-c2ccccc2)c2cc([N+](=O)[O-])ccc21 [compound 22] | 5 (≈ 15.3 µM) | 10 | 50 | 
